The target in the test is T1, human vasopressin V1b receptor (Homo sapiens, UniProt P47901).
T1 construct: expressed in transfected cells; host or cells: CHO-K1 (cell line hV1b-3H2_CHO), membrane preparation
T1 sequence (P47901 1-424): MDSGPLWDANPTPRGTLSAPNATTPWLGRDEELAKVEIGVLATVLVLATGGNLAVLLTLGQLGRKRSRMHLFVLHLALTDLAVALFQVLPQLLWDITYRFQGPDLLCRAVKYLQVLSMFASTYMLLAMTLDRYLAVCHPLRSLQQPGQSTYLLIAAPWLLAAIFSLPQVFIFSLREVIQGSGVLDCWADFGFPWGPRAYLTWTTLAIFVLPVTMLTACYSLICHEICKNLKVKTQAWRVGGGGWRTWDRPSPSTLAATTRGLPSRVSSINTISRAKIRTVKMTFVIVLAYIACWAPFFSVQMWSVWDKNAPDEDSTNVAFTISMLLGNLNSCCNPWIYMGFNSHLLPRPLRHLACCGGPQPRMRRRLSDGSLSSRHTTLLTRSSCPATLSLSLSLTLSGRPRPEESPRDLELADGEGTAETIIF
The test can be described thus: Vasopressin V1b receptor binding assay. The settings on record: membranes from CHO-K1 cells with stably expressed human V1b receptors; displacement of 1.5 nM 3H-AVP; read-out: V1b receptor affinity (affinity constant Ki). The method, boiled down:
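Ki values come from nonlinear regression of triplicate scintillation counts after filtration. Test compound (2% DMSO in the mixture) and radioligand were incubated 60 min at room temperature with human V1b membranes in pH 7.4 Tris buffer with 10 mM MgCl2 and 0.1% BSA. Nonspecific binding was set with 1 uM AVP.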
`COc1ccc(S(=O)(=O)n2c(=O)n(C(C(=O)N3CCN(c4ncncn4)CC3)c3ccccc3)c3cc(Cl)ccc32)cc1` (centres unmarked) [Example 89, 5-Chloro-1-(4-methoxybenzenesulfonyl)-3-[2-oxo-1-phenyl-2-(4-[1,3,5]triazin-2-ylpiperazin-1-yl)-ethyl]-1,3-dihydrobenzimidazol-2-one]: the Ki (commonly the equilibrium dissociation constant of an inhibitor or competing ligand from its target) was 500 to 10000 nM.
Next, `CN1CCN(C2CCN(C(=O)C(c3ccccc3)n3c(=O)n(S(=O)(=O)c4cccc5cccnc45)c4ccc(Cl)cc43)CC2)CC1` (centres unmarked) [Example 3, 5-Chloro-3-{2-[4-(4-methylpiperazin-1-yl)piperidin-1-yl]-2-oxo-1-phenyl-ethyl}-1-(quinoline-8-sulfonyl)-1,3-dihydrobenzimidazol-2-one]: 500 to 10000 nM; `CCCN1CCN([C@H]2CCN(C(=O)C(c3ccccc3)n3c(=O)n(S(=O)(=O)c4ccc(OCCF)cc4)c4ccc(C#N)cc43)C2)CC1` (stereo partly drawn) [Example 232, 1-[4-(2-Fluoro-ethoxy)-benzenesulfonyl]-2-oxo-3-{2-oxo-1-phenyl-2-[(S)-3-(4-propyl-piperazin-1-yl)-pyrrolidin-1-yl]-ethyl}-2,3-dihydro-1H-benzoimidazole-5-carbonitrile]: 100 to 500 nM; `COc1ccc(S(=O)(=O)n2c(=O)n(C(C(=O)N3CCC(n4ccnc4)CC3)c3ccccc3)c3cc(Cl)ccc32)cc1` (centres unmarked) [Example 88, 5-Chloro-3-[2-(4-imidazol-1-ylpiperidin-1-yl)-2-oxo-1-phenylethyl]-1-(4-methoxybenzenesulfonyl)-1,3-dihydrobenzimidazol-2-one]: 500 to 10000 nM.
Next, `COc1ccc(S(=O)(=O)n2c(=O)n(C(C(=O)N3CCC(N4CCN(C)CC4)CC3)c3ccccc3)c3cc(Cl)ccc32)cc1` (centres unmarked) [Example 64, 5-Chloro-1-(4-methoxybenzenesulfonyl)-3-{2-[4-(4-methylpiperazin-1-yl)piperidin-1-yl]-2-oxo-1-phenylethyl}-1,3-dihydrobenzimidazol-2-one]: 100 to 500 nM.

Source of the values: US8791148B2, “Substituted benzimidazolone derivatives, medicaments comprising them and their use” (AbbVie Deutschland GmbH & Co. KG, priority 2006, dated 2014).
